A short description of data set [1]: Pharmacokinetic Study in Healthy Human Males of Compound A in Combination with Indinavir with and without Fasting (Example 12). Type of data set: in vivo. The settings on record: co-administered with Indinavir, with food vs without food. Here is the method:
All of the subjects received the regimen once in the fasted state and once with a high-fat breakfast. The two single-dose treatments (fasted, fed) were administered in randomized crossover fashion, separated by one week. For treatments with food a breakfast consisting of two eggs, two strips of bacon, toast with two pats of butter (2×12.5 g), 120 g of fried potatoes and 240 ml of whole milk were consumed in no more than 15 minutes, and the test medication was administered within 5 minutes after completion of the breakfast.
All of the doses of Compound A were administered as the sulfate salt form of Compound A. All of the Compound A doses were tablets containing 200 mg of Compound A. Other ingredients in the tablets included microcrystalline cellulose (Avicel PH 101), mannitol SD 200, croscarmellose sodium, hydroxypropyl cellulose and magnesium stearate. […]
(§1) The safety of the subjects was monitored prior and subsequent to dosing by clinical adverse event reporting, measurement of vital signs, physical examinations, blood and urine laboratory safety tests, and ECGs. Plasma concentrations of Compound A were determined predose and at 0.5, 1, 1.5, 2, 3, 4, 6, 8, 12, 16, 20, 24, 30, 36 and 48 hours following each single dose in each period, using a reverse-phase HPLC column switching method with fluorescence detection.

Data set [2] is described as follows: administration to humans, plasma concentrations (general statements). It counts as in vivo, human. The source says:
Compound (b) is preferably selected from the group consisting of Indinavir, Ritonavir, and pharmaceutically acceptable salts thereof, and is most preferably Indinavir or a pharmaceutically acceptable salt or ester thereof. Particularly preferred is the composition in which (a) is the sulfate salt of Compound A and (b) is the sulfate salt of Indinavir. It has been discovered that the foregoing compounds of (b), when employed in combination with Compound A, can increase the plasma concentration of Compound A to a level having substantial antiviral activity.

Data set [3] in a line: Pharmacokinetic Study of Compound A in Healthy Human Males (Example 10). It counts as in vivo. The note with it: 20 mg single oral dose, suspension, fasted. Here is the method: A double-blind, single-rising dose, alternating two-panel, four-period, placebo-controlled study was conducted for Compound A in healthy adult males in the fasted state. Single doses of 20, 50, 100, 200, 400, 800 and 1200 mg of Compound A, or placebo, were administered as an oral suspension of the sulfate salt form of Compound A in sterile water. Each subject received increasing single oral doses of Compound A or placebo during each of the four treatment periods in alternate panels. Panel A dosage levels were 20, 100, 400 mg, and 400 mg with food. Panel B dosage levels were 50, 200, 800 and 1200 mg. For each period, 6 subjects received Compound A and 2 subjects received placebo as allocated by a randomized schedule. In Panel A, subjects who received 400 mg of Compound A also received 400 mg of Compound A with food. The safety of the subjects was monitored prior and subsequent to dosing by clinical adverse event reporting, measurement of vital signs, physical examinations, blood and urine laboratory safety tests, and ECGs. Plasma concentrations of Compound A were determined predose and at 0.5, 1, 1.5, 2, 3, 4, 6, 10, 12, 24, 32 and 48 hours following each single dose in each period, using a reverse-phase HPLC column switching method with fluorescence detection.

Data set [4] concerns wild-type HIV-1. The data set is described as follows: microbe, parasite or virus in culture. Type of data set: cell-based.
A short description of data set [5]: Pharmacokinetic Study of Compound A Alone and in Combination with Indinavir in Healthy Human Males (Example 11). It counts as in vivo. Here is the method:
as §1, with “A double-blind, single-rising dose, alternating two-panel, four-period, placebo-controlled study was conducted for Compound A alone and in combination with Indinavir in healthy adult males in the fasted state. […] All of the doses of Compound A were administered as the sulfate salt form of Compound A. All of the Compound A doses were oral suspensions of the sulfate salt form in sterile water, except that the 600-mg doses administered to Panel B in the fourth period were tablets. Indinavir was administered in the form of CRIXIVAN® capsules. The” for “The”

Setting [6] is: Compound A in combination with Indinavir.
Setting [7] is: 200 mg Compound A + 800 mg Indinavir relative to 200 mg Compound A alone.

Molecules are shown by their SMILES. Where two headings read alike, the source gives them in different places.

Turning to `CC(C)(C)NC(=O)[C@@H]1CN(Cc2cc3ccccc3o2)CCN1C[C@@H](O)C[C@@H](Cc1ccccc1)C(=O)N[C@H]1c2ccccc2C[C@H]1O` [Compound A, N-(2(R)-hydroxy-1(S)-indanyl)-2(R)-phenylmethyl-4-(S)-hydroxy-5-(1-(4-(2-benzo[b]furanylmethyl)-2(S)-N'-(t-butylcarboxamido)-piperazinyl))-pentaneamide], the “Compound A plasma levels, fed versus fasted” value in data set [1] is listed as “higher Compound A plasma levels”. For the same compound, in data set [2] (setting [6]), the “effect of Indinavir on inter-individual variation of Compound A plasma concentrations” value was “markedly reduces inter-individual variation” and the “effect of Indinavir on plasma concentrations of Compound A” value is “substantially increase the plasma concentrations”. Also, the “inter-individual variation in the plasma levels” value in data set [2] (humans, Compound A alone, vs Indinavir) is reported as “significant inter-individual variation”. In addition, the “plasma concentration increase with successively higher doses” value in data set [2] (humans, dose proportionality) is listed as “greater than proportional increases in plasma concentrations”. Besides, the “plasma concentrations of Compound A” value in data set [2] (humans, relative to comparable doses of Indinavir) is recorded as “very low plasma concentrations”. The plasma concentrations entry in data set [3] was “below the assay quantification limit”. Moreover, the IC95 in data set [4] (Human immunodeficiency virus 1, wild-type HIV-1, Cell Spread Assay, read-out: CIC95) was determined as 0.025 µM. Besides, the “potency relative to Indinavir” value in data set [4] (wild type HIV-1, in vitro) is recorded as “approximately two-fold greater potency than Indinavir”. In data set [5] (setting [7]), the “AUC increase (times higher)” value is recorded as “about 30 ×”, the “C8 hrs increase (times higher)” value is reported as about 46 × and the “Cmax increase (times higher)” value is reported as “about 19 ×”. Also, the “AUC increase (fold higher)” value in data set [5] (600 mg Compound A + 800 mg Indinavir relative to Compound A alone) is “about 18 fold”.

As to `CC(C)(C)NC(=O)[C@@H]1CN(Cc2cccnc2)CCN1C[C@@H](O)C[C@@H](Cc1ccccc1)C(=O)N[C@H]1c2ccccc2C[C@H]1O` [Indinavir, N-(2(R)-hydroxy-1(S)-indanyl)2(R)-phenylmethyl-4-(S)-hydroxy-5-(1-(4-(3-pyridylmethyl)-2(S)-N'-(t-butylcarboxamido)-piperazinyl))-pentaneamide, reference compound], the IC95 in data set [4] (Human immunodeficiency virus 1, read-out: CIC95) amounted to 0.05 µM.

For the origin of these results see patent publication US6180634A, “Combination therapy for the treatment of AIDS” (priority 1998, dated 2001).
